Structures can show the parent of a compound that is named as a salt.

The values below come from patent publication US10981932B2, “Macrocyclic indole derivatives” (Bayer Aktiengesellschaft, priority 2016, dated 2021).

For data set [1], the system named is SUDHL5. Put plainly: Anti-proliferative effect (CellTiter-Glo, 72 h), SUDHL5. The format is cell-based. Conditions: SUDHL5 cells, antiproliferation, 72 h incubation, median, read-out: Antiproli SUDHL5 [M] (median). In outline:
(§1)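 A time zero plate, read with CellTiter-Glo shortly after seeding, served as baseline; compound-treated plates were incubated 72 h at 37 °C and then read identically by luminescence.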

In data set [2] the test system is SUDHL10. Put plainly: Anti-proliferative effect (CellTiter-Glo, 72 h), SUDHL10. The format is cell-based. To be noted: Homo sapiens, SU-DHL10, 72 h, SUDHL10 cells, antiproliferation, 72 h incubation, median, read-out: Antiproli SUDHL10 [M] (median). In outline: as §1
Background: In ATP-based viability assays light output follows the ATP content of the culture.

In the next data set the target is T1, BCL-XL (Homo sapiens, UniProt Q07817).
T1 construct: BCL-XL (amino acids 1-212, C-terminal fused to a hexahistidine (6×His) tag); purchased BPS Bioscience (San Diego, Calif., USA); host or cells: E. coli
T1 sequence (Q07817 1-212): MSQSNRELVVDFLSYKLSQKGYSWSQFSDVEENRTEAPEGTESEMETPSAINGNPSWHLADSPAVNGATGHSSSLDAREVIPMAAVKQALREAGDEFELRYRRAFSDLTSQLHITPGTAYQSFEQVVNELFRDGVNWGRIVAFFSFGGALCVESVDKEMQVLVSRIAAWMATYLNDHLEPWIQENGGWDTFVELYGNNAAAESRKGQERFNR
Put plainly: Protein-protein interaction assay BCL-XL/Bad BH3 peptide (BCL-XL assay), TR-FRET. The format is binding. Conditions: His-BCL-XL / Bad BH3-derived peptide. On the procedure: Protein-Protein Interaction Assay: BCL-XL/Bad BH3 Peptide (BCL-XL Assay)
The dose-dependent inhibition by the compounds described in this invention of the interaction between […] and the BH3 domain of Bad (both human) was determined using a steady state binding competition assay with time-resolved fluorescence energy transfer (TR-FRET) readout. For that purpose BCL-2 (amino acids 1-211, C-terminal fused to a hexahistidine (6×His) tag (SEQ ID NO: 3) and a synthetic Bad BH3-derived peptide of sequence Biotin-PEG2-PEG2-NLWAAQRYGRELRR-NIe-SDEFVDSFKK-amide (SEQ ID NO: 2) served as protein receptor and tracer ligand respectively. The recombinant BCL-2 protein (expressed in E. coli) was purchased from BPS Bioscience (San Diego, Calif., USA). The Bad BH3-derived peptide can be obtained from e.g. Biosyntan (Berlin, Germany).
In the assay 11 different concentrations of each compound (0.1 nM, 0.33 nM, 1.1 nM, 3.8 nM, 13 nM, 44 nM, 0.15 μM, 0.51 μM, 1.7 μM, 5.9 μM and 20 μM) were typically measured as duplicates in the same microtiter plate. For that, 100-fold concentrated DMSO solutions were prepared by serial dilutions (1:3.4) of a 2 mM stock solution in a clear, 384-well microtiter plate (Greiner Bio-One, Frickenhausen, Germany). From there, 50 nl were transferred in a dark test plate (Greiner Bio-One. Frickenhausen, Germany). The assay was initiated by addition of 2 μl of a 2,5-fold concentrated Hs-BCL-XL solution (usually for a 1 nM end concentration in 5 μl reaction volume) in aqueous assay buffer [50 mM Tris/HCl pH 7, 100 mM sodium chloride (NaCl), 50 mM potassium fluoride (KF), 0.005% Tween-20, 2 mM DTT, 0.1% bovine gamma globulin (BGG)] to the compounds in the assay plate. This was followed by a 10-minute incubation step at 22° C. for pre-equilibration of the putative complex between His-BCL-XL and the compounds.
The mixture was incubated in the dark for one hour at 22° C. and then overnight at 4° C. The formation of BCL-XL/Bad complexes was determined by measuring the resonance energy transfer of the anti-His- Eu-cryptate antibody to the streptavidin-XL665 present in the reaction. For that purpose, the fluorescence emission at 620 nm and 665 nm after excitation at 330-350 nm was measured in a TR-FRET measuring instrument, for instance a Rubystar or a Pherastar (both from BMG Lab Technologies, Offenburg, Germany) or a Viewlux (Perkin-Elmer). The ratio of the emission at 665 nm and at 622 nm was used as indicator of the amount of BCL-XL/Bad complexes present.
The resulting data (ratio) were normalized, taking 0% inhibition as the mean value of control measurements (usually 32 data points) where all reagents were included. In this case 50 nl DMSO were used instead of compounds. A 100% inhibition corresponded to the mean value of control measurements (usually 32 data points) where all reagents except BCL-XL were included. IC50 values were determined by regression analysis based on a 4 parameter equation (minimum, maximum, IC50, Hill; Y=Max+(Min−Max)/(1+(X/IC50)^Hill) using the Screener Software (Genedata).
Background: Time-resolved FRET reads energy transfer from a long-lived donor to a nearby acceptor.

The test system of data set [3] is SUDHL10. As to the kind of experiment: Induction of cytotoxicity (CellTiter-Glo, 5 h), SUDHL10.
Description: (§2) Therefore, cytotoxicity assays were run in parallel in SUDHL5 and SUDHL10 cells.
(§3) The different cell lines were plated in culture medium (RPMI 1640 [GIBCO #22400-089]supplemented with 10% Fetal Bovine Serum) at a density of 3.300 cells in 30 μl/well in a sterile, solid black, flat bottom, polystyrene, TC-treated 384-well microplate (Corning #3571) using Multidrop Combi Reagent Dispenser. As a control, medium without cells was also added to the plate. Cells were incubated in a humidified incubator at 37° C. overnight. On the next day, the cells were treated with compounds (stock solution, 10 mM in DMSO) using the HP D300 Digital Dispenser in a concentration range of 3.3×10e-5 M (33 μM) to 5×10e-9 M (5 nM) in a single-dot curve with at least 16 dilutions and a DMSO concentration of 0.33%. Rim wells were excluded. The cells were incubated for 5 h hours in a humidified incubator at 37° C. After this incubation, 30 μl of CellTiter-Glo@ Luminescent Cell Viability reagent (Promega, G7573) was added to each well using the Multidrop Combi Reagent Dispenser, followed by 15 min incubation on a shaker at room temperature. Finally, luminescence was read at 0.1 ms, with a gain of 3000 using the PHERAstar FS microplate reader (BMG Labtech).
(§4) The Bella DRC Master Sheet was used to calculate IC50s, with fixed CI=0 and C0=1.
Data set [4] relates to SUDHL5. Put plainly: Induction of caspase-3/7 activity (Caspase-Glo 3/7), SUDHL5. It is filed as cell-based. To be noted: caspase-3/7 induction, SUDHL5 cells, 3 h treatment, median. In outline:
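DLBCL cells treated with compounds for 3 h at 37 °C, then caspase-3/7 activity read by Caspase-Glo 3/7 luminescence. Medium-only background subtracted; EC50 fitted with C0 fixed at 1 and top set to the reference compound's maximal induction.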

Data set [5] has as its system SUDHL5. Put plainly: Induction of cytotoxicity (CellTiter-Glo, 5 h), SUDHL5.
Description: as §2, §3, §4
The next data set deals with A2780. As to the kind of experiment: Anti-proliferative effect (CellTiter-Glo, 72 h), A2780. The format is cell-based. Conditions: Homo sapiens, A2780, 72 h, A2780 cells, median, read-out: IC50 antiproliferation assay A2780 [M] (median). In outline: as §1
The mark [6] stands for this setting: Homo sapiens, SU-DHL10, 5 h, read-out: Cytotox SUDHL10 [M] (median), SUDHL10 cells, cytotoxicity induction, CellTiter-Glo, 5 h incubation, median.
[7] abbreviates: Homo sapiens, SU-DHL-5, 5 h, read-out: Cytotox SUDHL5 [M] (median), SUDHL5 cells, cytotoxicity induction, CellTiter-Glo, 5 h incubation, median.
[8] abbreviates: read-out: Cytotox SUDHL10 [M] (median), SUDHL10 cells, cytotoxicity induction, CellTiter-Glo, 5 h incubation, median.
Where [9] appears, read: read-out: Cytotox SUDHL5 [M] (median), SUDHL5 cells, cytotoxicity induction, CellTiter-Glo, 5 h incubation, median.

For the compound `Cc1c2c(nn1C)COCCCCn1c(C(=O)O)c(CCCOc3cccc4ccccc34)c3cccc-2c31` (racemic) [Example 1-36, (rac)-2,3-dimethyl-7-[3-(naphthalen-1-yloxy)propyl]-2,10,11,12,13,15-hexahydropyrazolo[4′,3′:9,10][1,6]oxazacycloundecino[8,7,6-hi]indole-8-carboxylic Acid], the IC50 in the data set with SUDHL5 [1] (Homo sapiens, SU-DHL-5, 72 h) was 2.63e-06 M; in the data set on SUDHL10 [2], 6.09e-06 M; on BCL-XL, more than 20 µM; in the data set on SUDHL10 [3] (setting [6]), 1.4e-05 M; in the data set with SUDHL5 [5] (setting [7]), 3.69e-06 M; in the data set on A2780, more than 3.3e-05 M. Further, the concentration giving a half-maximal response (EC50) with SUDHL5 [4] (Homo sapiens, SU-DHL-5, 3 h) was determined as 3.94 µM.
As to `Cc1nn(C)c2c1-c1cccc3c(CCCOc4cccc5ccccc45)c(C(=O)O)n(c13)CCCCOCC2` (racemic) [Example 017, (rac)-1,3-dimethyl-7-[3-(1-naphthyloxy)propyl]-10,11,12,13,15,16-hexahydro-1H-pyrazolo[4′,3′:9,10][1,6]oxazacyclododecino[8,7,6-hi]indole-8-carboxylic Acid], the IC50 is 6.09e-06 M in the data set with SUDHL5 [1] (Homo sapiens, SU-DHL-5, 72 h); 2.17e-05 M with SUDHL10 [2]; more than 20 µM on BCL-XL; more than 3.3e-05 M in the data set with SUDHL10 [3] (setting [6]); 1.36e-05 M in the data set on SUDHL5 [5] (setting [7]); more than 3.3e-05 M in the data set with A2780. Also, in the data set with SUDHL5 [4] (Homo sapiens, SU-DHL-5, 3 h), the concentration giving a half-maximal response (EC50) was 14.7 µM.
On to `Cc1ccc2c(CCCOc3cccc4c3CCCC4)c(C(=O)O)n3c2c1-c1c(C)nn(C)c1COCCCC3` (racemic) [Example 039, (rac)-1,3,4-trimethyl-7-[3-(5,6,7,8-tetrahydronaphthalen-1-yloxy)propyl]-110,11,12,13,15-hexahydropyrazolo[4′3′:9,10][1,6]oxazacycloundecino[8,7,6-hi]indole-8-carboxylic Acid], for which the IC50 in the data set with SUDHL5 [1] (Homo sapiens, SU-DHL-5, 72 h) was 1.11e-05 M; in the data set on SUDHL10 [2] it was 1.3e-05 M; at BCL-XL it was more than 20 µM; with SUDHL10 [3] (setting [6]) it was 2.97e-05 M; in the data set on SUDHL5 [5] (setting [7]) it was 8.59e-06 M; in the data set on A2780 it was 2.14e-05 M. This compound registered an EC50 in the data set on SUDHL5 [4] (Homo sapiens, SU-DHL-5, 3 h) of 7.47 µM.
As to `CC(C)c1c2c(nn1C)CN(C)CCCn1c(C(=O)O)c(CCCOc3cccc4ccccc34)c3cccc-2c31` (racemic) [Example 113, (rac)-7,10-dimethyl-1-[3-(naphthalen-1-yloxy)propyl]-11-(propan-2-yl)-4,5,6,7,8,10-hexahydropyrazolo[3′,4′:7,8][1,5]diazecino[9,10,1-hi]indole-2-carboxylic Acid], the IC50 in the data set on SUDHL10 [2] is 6.99e-06 M; on BCL-XL, more than 20 µM; in the data set with SUDHL10 [3] (setting [6]) it was 7.9e-06 M; in the data set with SUDHL5 [5] (setting [7]), 6.84e-06 M; in the data set on A2780, 8.81e-06 M.
Regarding `CCc1c2c(nn1C)CN(C)CCCn1c(C(=O)O)c(CCCOc3cccc4ccccc34)c3cccc-2c31` (racemic) [Example 141, (rac)-11-ethyl-7,10-dimethyl-1-[3-(1-naphthyloxy)propyl]-4,5,6,7,8,10-hexahydropyrazolo[3′,4′:7,8][1,5]diazecino[9,10,1-hi]indole-2-carboxylic Acid], the IC50 with SUDHL5 [1] (Homo sapiens, SU-DHL-5, 72 h) is 1.39e-06 M; in the data set on SUDHL10 [2] it was 1e-05 M; against BCL-XL, more than 20 µM; in the data set on SUDHL10 [3] (setting [6]), 7.87e-06 M; in the data set with SUDHL5 [5] (setting [7]) it was 3.66e-06 M; with A2780 it was 1.48e-05 M. In the data set with SUDHL5 [4] (Homo sapiens, SU-DHL-5, 3 h), this compound returned an EC50 of 4.08 µM.
On to `CCc1c2c(nn1C)CN(C)CCCn1c(C(=O)O)c(CCCOc3cccc4ccccc34)c3ccc(C)c-2c31` (racemic) [Example 144, (rac)-11-ethyl-7,10,12-trimethyl-1-[3-(1-naphthyloxy)propyl]-4,5,6,7,8,10-hexahydropyrazolo[3′,4′:7,8][1,5]diazecino[9,10,1-hi]indole-2-carboxylic Acid], for which the IC50 was 1.33e-06 M in the data set on SUDHL5 [1] (Homo sapiens, SU-DHL-5, 72 h); 5.89e-06 M with SUDHL10 [2]; more than 20 µM at BCL-XL; 5.02e-06 M in the data set on SUDHL10 [3] (setting [6]); 2.55e-06 M in the data set on SUDHL5 [5] (setting [7]); 1.17e-05 M in the data set with A2780. In addition, a half-maximal response with SUDHL5 [4] (Homo sapiens, SU-DHL-5, 3 h) (EC50) required 2.85 µM.
For the compound `CCc1c2c(nn1C)COCCCCn1c(C(=O)O)c(CCCOc3cccc4ccccc34)c3ccc(C)c-2c31` (racemic) [Example 153, (rac)-3-Ethyl-2,4-dimethyl-7-[3-(1-naphthyloxy)propyl]-2,10,11,12,13,15-hexahydropyrazolo[4′,3′:9,10][1,6]oxazacycloundecino[8,7,6-hi]indole-8-carboxylic Acid], the IC50 is 7.96e-07 M with SUDHL5 [1] (Homo sapiens, SU-DHL-5, 72 h); 4.09e-06 M in the data set on SUDHL10 [2]; more than 20 µM on BCL-XL; 5.1e-06 M with SUDHL10 [3] (setting [6]); 1.65e-06 M with SUDHL5 [5] (setting [7]); 1.52e-05 M in the data set with A2780. In the data set on SUDHL5 [4] (Homo sapiens, SU-DHL-5, 3 h), the half-maximal effective concentration (EC50) was determined as 1.7 µM.
With `Cc1nn(C)c2c1-c1cccc3c(CCCOc4cccc5cc(Cl)ccc45)c(C(=O)O)n(c13)CCCCOC2` (single isomer, unassigned; enantiomer 1) [Example 041, 7-{3-[(6-chloronaphthalen-1-yl)oxy]propyl}-1,3-dimethyl-1,10,11,12,13,15-hexahydropyrazolo[4′,3′:9,10][1,6]oxazacycloundecino[8,7,6-hi]indole-8-carboxylic acid-N-ethylethanamine Salt (Enantiomer 1)], the IC50 is 9.88e-06 M in the data set with SUDHL5 [1] (Homo sapiens, SU-DHL-5, 72 h); more than 20 µM against BCL-XL; 1.46e-05 M with SUDHL10 [3] (setting [8]); 1.02e-05 M with SUDHL5 [5] (setting [9]); 1.81e-05 M with A2780. In addition, the midpoint of the response in the data set on SUDHL5 [4], the EC50, lay at 13.1 µM.
Consider `COCc1nn(C)c2c1-c1cccc3c(CCCOc4cccc5ccccc45)c(C(=O)O)n(c13)CCCN(C)C2` (single isomer, unassigned; enantiomer 2) [Example 1-104, 11-(methoxymethyl)-7,9-dimethyl-1-[3-(1-naphthyloxy)propyl]-4,5,6,7,8,9-hexahydropyrazolo[3′,4′:7,8][1,5]diazecino[9,10,1-hi]indole-2-carboxylic Acid (Enantiomer 2)], for which the IC50 was 3.62e-06 M in the data set with SUDHL5 [1], more than 20 µM against BCL-XL, 1.78e-05 M in the data set on SUDHL10 [3] (setting [8]) and 7.21e-06 M in the data set on SUDHL5 [5] (setting [9]). In addition, the EC50 in the data set with SUDHL5 [4] stood at 4.96 µM.

As a reminder, the EC50 is the midpoint of the concentration-response curve. A low value points to greater potency.
